Results published in patent US20100137396A1, “TREATMENT OF ESOPHAGEAL HIGH GRADE DYSPLASIA USING PHOTODYNAMIC THERAPY” (Health Research, Inc, priority 2007, published 2010).

How the values were obtained:
[1] = Normal tissue damage after photodynamic therapy (strictures; erythema, edema and necrosis); assay type: in vivo, human; settings: after first PDT treatment
Experimental: Nevertheless, PHOTOFRIN™ at an optimized dose level of 2 mg/kg body weight and activation at its preferential light absorption wavelength of 630 nm, and optimized light exposure results in a first treatment complete cure rate of about 32 percent and a two treatment complete cure rate of about 58 percent and a three treatment complete cure rate of about 77 percent. Unfortunately, the treatment also results in significant damage to surrounding normal tissue. Normal tissue damage for PHOTOFRIN™, as measured by percent of strictures at only a single treatment is about 12% and using other reported data concerning PHOTOFRIN™ treatment, is greater than 20 percent based upon toxicity as determined by the presence of erythema, edema and necrosis.
(§1) Using the above parameters, a phase I/II trial using HPPH and a phase III trial using PHOTOFRIN™, the latter approved by the United States Food and Drug Administration, the following results for response of high grade dysplasia were obtained, with CR being defined as complete ablation of high grade dysplasia.

[2] = tested on: esophageal high grade dysplasia; experiment: Photodynamic therapy trials, response of high grade dysplasia (phase I/II HPPH, phase III PHOTOFRIN); assay type: in vivo, human; settings: for Response After First Treatment, CR (complete ablation of high grade dysplasia): after first PDT treatment, patients with high grade dysplasia; for Response After Second Treatment, expected cure rate / Response After Third Treatment, expected cure rate: calculated from first-treatment rate applied to remaining uncured
Experimental: The method of the invention includes the steps of: • injecting HPPH in a physiologically compatible medium into a patient having high grade esophageal dysplasia to provide a dose level of 3 through 5 mg/m^2 of body surface area, preferably 3 through 4 mg/m^2 of body surface area. • waiting for a time period of 24 through 60 hours to permit preferential absorption of the HPPH into the high grade dysplasia tissue, and • exposing the esophageal high grade dysplasia tissue to light at a wavelength of about 670±5 nm at an energy of from about 75 to about 200 Joules/cm, preferably 75 to about 150 Joules/cm.
Injection of the HHPH is preferably accomplished intravenously usually over a time period of 0.75 to 3 hours in a physiologically compatible medium. The time period is functionally dependent upon rate of infusion and dose level desired The concentration is preferably 0.5-through 1.5 mg/ml in medium and the medium is preferably 0.1% polysorbate 80, 2% ethyl alcohol and 5% glucose in normal saline.
Exposure is accomplished using a fiber optic carrying laser light emitted by a laser. The laser may be any suitable laser emitting light at the wavelength and energy desired, e.g. a dye or diode laser. Exposure may be adjusted by length of time of exposure and/or adjustment of light intensity.
as §1

[3] = treatment concentration of 2 mg/kg; cited from earlier work
[4] = tested on: esophageal high grade dysplasia; settings: 2 mg/kg body weight, 630 nm, optimized light exposure; cited from earlier work
[5] = cited from earlier work

Substance	First Treatment Normal Tissue Damage, strictures [1] [% strictures]	effectiveness against high grade dysplasia and side effects compared with PHOTOFRIN ([2]; 3 to 5 mg/m^2 of body surface area, light at 670±5 nm)	Response After First Treatment, CR (complete ablation of high grade dysplasia) [2] [% CR]	Response After Second Treatment, expected cure rate [2]	Response After Third Treatment, expected cure rate [2]	phototoxicity [3]	first treatment complete cure rate [4]	three treatment complete cure rate [4]	two treatment complete cure rate [4]	Response After Second Treatment, cure rate (observed) ([2]; after second PDT treatment)	Response After Third Treatment, cure rate (observed) ([2]; after third PDT treatment)	Normal tissue damage as measured by percent of strictures ([5]; at only a single treatment)	Normal tissue damage based upon toxicity as determined by the presence of erythema, edema and necrosis ([5]; other reported data concerning PHOTOFRIN treatment)
3-(1-hexyloxy) ethyl-derivative of pyropheophorbide-a [HPPH]	3	more effective against high grade dysplasia with fewer side effects than PHOTOFRIN™	49	74% expected cure rate	87% expected cure rate (based	–	–	–	–	–	–	–	–
porfimer sodium [PHOTOFRIN ™]	12	–	32	54% expected cure rate (based upon	71% expected cure rate (based upon	can cause serious phototoxicity	about 32%	about 77%	about 58%	58% cure rate (observed)	77% cure rate (observed)	about 12%	greater than 20%
